# Experimental data from patent US10993940B2, “Methods of enhancing immune response” (NOVARTIS AG, priority 2016, dated 2021).
# Entries after “also recorded” stand apart in the source; their conditions may differ.
# Tests used:
# mTORC1 = mTORC1 (Homo sapiens, UniProt P42345); details: very low concentration; cited from earlier work
# [1] = human, in vivo
# Experimental: In some embodiments, dosing regimens contemplated herein comprise administering daily an amount of RAD001 ranging from about 0.015 mg to about 0.1 mg.
# [2] = test system: respiratory tract infections; experiment: Respiratory tract infections during the 6 weeks of study drug treatment; assay type: in vivo, human; details: BEZ235 10 mg daily
# Experimental: (Top) The percentage of subjects in each cohort who reported having one or more respiratory tract infections during the 6 weeks they were treated with study drug is shown. (Bottom) The percentage of subjects who experienced respiratory tract infections of moderate severity during the 6 weeks they were treated with study drug is shown. No subjects in the study experienced respiratory tract infections that were assessed as severe. The numbers on top of each bar indicate the percent change relative to placebo.
# The rate of infections during the 6 weeks subjects were treated with study drug was also examined. The main infections that occurred during the 6 weeks of study drug treatment were respiratory tract infections.
# mTORC1 and mTORC2 = mTORC1 and mTORC2 (Homo sapiens, UniProt P42345); details: low concentration; cited from earlier work
# [3] = oncology indications; cited from earlier work
# [4] = test system: immune system and interferon-induced gene expression in whole blood; experiment: RNAseq gene expression profiling and pathway enrichment analysis in whole blood, baseline vs after 6 weeks of treatment; assay type: in vivo, Homo sapiens; details: for Up-regulated genes: Tukey outlier of log 2(FC post- vs pre-treatment); for Mean FC Genes In Pathway: whole blood, post- vs pre-treatment (6 weeks)
# Experimental: Peripheral venous blood samples were collected into PAXgene Blood RNA tubes. Total RNA was purified from PAXgene collected blood and the quality and yield of the isolated RNA assessed using an Agilent 2100 Bioanalyzer (Agilent Technologies, Santa Clara, Calif., USA). RNA-Seq libraries were prepared from the RNA using the Illumina TruSeq Stranded Total RNA with the Ribo-Zero Globin Kit. This kit performed the removal of ribosomal RNA and globin mRNA in a single step. The obtained libraries were sequenced using the Illumina HiSeq2500 platform in paired-end mode to a read length of 2×76 base-pairs (bp). Images from the instrument were processed using the manufacturer's software to generate FASTQ sequence files. Read quality was assessed by running FastQC (version 0.10) on the FASTQ files. […] An average of 100 million 76 bp paired-end reads per sample were mapped to the Homo sapiens genome (version GRCh38) and RefSeq UCSC was used for human gene and transcript annotation. An in-house gene quantification pipeline was used to determine the number of counts mapping to each gene (Schuierer, S. & Roma, G. The exon quantification pipeline (EQP): a comprehensive approach to the quantification of gene, exon and junction expression from RNA-seq data. Nucleic acids research (2016)). On average, 88% of the total reads were mapped to the genome or the transcripts, and 30% of the aligned reads mapped to expressed sequences. […] Any gene with an average expression of less than one count per million in any treatment/time condition was considered undetectable and removed from further analysis. Count data for remaining genes was then normalized in R Statistical Computing Software (v3.1.3) using the voom normalization procedure located in the limma package (Law, C W, Chen, Y, Shi, W, and Smyth, G K (2014). Voom: precision weights unlock linear model analysis tools for RNA-seq read counts. Genome Biology 15, […]). […] Thus, we included the value of this principle component as an adjustment for technical variation in subsequent analysis. For each gene, the following linear mixed model was fit to the voom-normalized expression data, adjusting for relevant covariates (age, gender, and BMI) as well as PC1 using SAS v9.3 software. • proc mixed […]; • class SubjID Day Trt Gender; • model log 2[…] Age Gender Bmi/solution DDFM=KenwardRoger; • repeated Day/type=un subject=SubjID; • by gene; where log 2exprs refers to the voom-normalized expression measurement; Day refers to the timepoint the sample was taken (pre- or post-dose); Trt refers to the treatment group of the subject; PC1 refers to the value of PC1 for that sample; Age refers to the age of the subject; Gender refers to the sex of the subject; Bmi refers to the body mass index of the subject; and SubjID refers to the ID of the subject. Differential expression fold changes and p-values were obtained using the SAS estimate statement. […] These gene expression signatures consisted of the post-vs pre-treatment fold change and p-values for each treatment. […] Canonical pathways (c2.cp.v5.0.entrez.gmt) were downloaded from the canonical signatures database (http://software.broadinstitute.org/gsea/msigdb/). Signatures were defined as described in the “RNASeq Differential Expression Analysis” section. For each pathway and treatment response signature, a weighted KS test was performed as previously described (Subramanian et al. Gene set enrichment analysis: A knowledge-based approach for interpreting genome-wide expression profiles. Proc. Nat. Acad.
# [5] = pH 3
# [6] = human, in vivo, 10 mg
# PI3K/mTOR = details: relatively higher concentrations; cited from earlier work
# urinary tract infections = experiment: Urinary tract infections during one year after study drug administration; assay type: in vivo, human
# tooth or gum infections = experiment: Tooth or gum infections during one year after study drug administration
# Experimental: A total of 264 elderly volunteers ≥65 years of age, without unstable medical conditions, were enrolled in a randomized double blind placebo-controlled trial. […] Subjects were treated for 6 weeks with study drug and, after a 2 week drug-free interval, were given a 2014 seasonal influenza vaccine (Fluvax®, CSL Biotherapies). […] The subjects were then followed for another 9 months off study drug.
# As an additional assessment of immune function, the overall infection rate in each treatment group was assessed by having subjects record any infections they experienced during the year following the initiation of study drug treatment in a diary that was reviewed by study investigators at each study visit.
# infections = experiment: Overall infection rate recorded by diary during the year following initiation of study drug; assay type: in vivo, human; details: elderly >=65 years
# [7] = REACTOME_INTERFERON_ALPHA_BETA_SIGNALING
# [8] = REACTOME_INTERFERON_GAMMA_SIGNALING
smiles,measurement,setting,value
"Cn1c(=O)n(-c2ccc(C(C)(C)C#N)cc2)c2c3cc(-c4cnc5ccccc5c4)ccc3ncc21 [BEZ235, 2-methyl-2-[4-(3-methyl-2-oxo-8-quinolin-3-yl-2,3-dihydro-imidazo[4,5-c]quinolin-1-yl)-phenyl]-propionitrile]",concentration at which mTORC1 inhibition predominates,mTORC1,less than or equal to 10 nmol/L
same,tolerability,[1],well tolerated
same,incidence and severity of respiratory tract infections during the 6 weeks subjects were treated with study drug,[2],reduction
same,concentration at which mTORC1 and mTORC2 inhibition predominates,mTORC1 and mTORC2,less than 200 nmol/L
same,maximum tolerated dose,[3],1200 mg daily
same,Up-regulated genes,"[4]; REACTOME_CYTOKINE_SIGNALING_IN_IMMUNE_SYSTEM, listed as Bez",IFITM3; FCGR1A; FCGR1B; HLA-DQA2; and CDK1
same,Mean FC Genes In Pathway,[4]; REACTOME_CYTOKINE_SIGNALING_IN_IMMUNE_SYSTEM,0.02
same,Up-regulated genes,"[4]; REACTOME_IMMUNE_SYSTEM, listed as Bez",IFITM3; LILRB4; TRIM9; FCGR1A;; also recorded: FCGR1B; CD274; HLA-DQA2; RAP1GAP;; also recorded: TLR5; C1QA; C1QB; C3; C4BPA;; also recorded: PDCD1LG2; KLHL13; CD80; CDK1
same,Mean FC Genes In Pathway,[4]; REACTOME_IMMUNE_SYSTEM,0.01
same,Up-regulated genes,[4]; [7],IFITM3
same,Mean FC Genes In Pathway,[4]; [7],0.03
same,Up-regulated genes,[4]; [8],FCGR1A; FCGR1B; HLA-DQA2
same,Mean FC Genes In Pathway,[4]; [8],0.04
same,Up-regulated genes,[4]; REACTOME_INTERFERON_SIGNALING,"IFITM3; FCGR1A; FCGR1B, HLA-DQA2"
same,Mean FC Genes In Pathway,[4]; REACTOME_INTERFERON_SIGNALING,0.03
same,solubility,[5],low
same,"inter-patient variability, AUClast,ss % CV",[6],39%
same,concentration of dual PI3K/mTOR inhibition,PI3K/mTOR,approximately 500 nmol/L
"CO[C@H]1C[C@@H]2CC[C@@H](C)[C@@](O)(O2)C(=O)C(=O)N2CCCC[C@H]2C(=O)O[C@H]([C@H](C)C[C@@H]2CC[C@@H](OCCO)[C@H](OC)C2)CC(=O)[C@H](C)/C=C(\C)[C@@H](O)[C@@H](OC)C(=O)[C@H](C)C[C@H](C)/C=C/C=C/C=C/1C [RAD001, (1R,9S,12S,15R,16E,18R,19R,21R,23 S,24E,26E,28E,30S,32S,35R)-1,18-dihydroxy-12-{(1R)-2-[(1 S,3R,4R)-4-(2-hydroxyethoxy)-3-methoxycyclohexyl]-1-methylethyl}-19,30-dimethoxy-15,17,21,23,29,35-hexamethyl-11,36-dioxa-4-aza-tricyclo[30.3.1.04,9]hexatriaconta-16,24,26,28-tetraene-2,3,10,14,20-pentaone]",Percent of subjects with urinary tract infections during one year after study drug administration,"urinary tract infections; RAD001 0.1 mg daily, N = 51",10%
same,Percent of subjects with urinary tract infections during one year after study drug administration,"urinary tract infections; RAD001 0.5 mg daily, N = 46",11%
same,Number of tooth or gum infections per person for one year after study drug administration,tooth or gum infections; RAD001 0.1 mg daily,.02
same,Number of tooth or gum infections per person for one year after study drug administration,tooth or gum infections; RAD001 0.5 mg daily,.02
same,Infection rate/person for one year after study drug administration,infections; RAD001 0.1 mg daily for 6 weeks,2.0
same,Infection rate/person for one year after study drug administration,infections; RAD001 0.5 mg daily for 6 weeks,2.1
